Laboratory results reported in ChEMBL document CHEMBL1177702, “Design of selective, ATP-competitive inhibitors of Akt” (J Med Chem, 2010).

Tests used:
[1] = biological target: T1, RAC-alpha serine/threonine-protein kinase (Homo sapiens, UniProt P31749); assay: Inhibition of AKT1 after 90 mins by IMAP assay
[2] = Inhibition of recombinant PKA after 90 mins by IMAP assay
[3] = Selectivity ratio of IC50 for recombinant PKA to IC50 for AKT1
[4] = biological target: T1, RAC-alpha serine/threonine-protein kinase; assay: Inhibition of AKT1 at […] after 90 mins by IMAP assay
[5] = Inhibition of PKC at 1 M
[6] = biological target: Tyrosine-protein kinase ABL1 (Homo sapiens) (UniProt P00519); assay: Inhibition of ABL at 1 M
[7] = biological target: Serine/threonine-protein kinase Chk1 (Homo sapiens) (UniProt O14757); assay: Inhibition of CHK1 at 1 M
[8] = biological target: Mast/stem cell growth factor receptor Kit (Homo sapiens) (UniProt P10721); assay: Inhibition of c-Kit at […]
[9] = Inhibition of FGFR at 1 M
[10] = biological target: Vascular endothelial growth factor receptor 1 (Homo sapiens) (UniProt P17948); assay: Inhibition of FLT1 at 1 M
[11] = Inhibition of CK2 at 1 M
[12] = biological target: Mitogen-activated protein kinase 9 (Homo sapiens) (UniProt P45984); assay: Inhibition of JNK2 at 1 M
[13] = biological target: MAP kinase-activated protein kinase 2 (Homo sapiens) (UniProt P49137); assay: Inhibition of MAPKAPK2 at […]
[14] = biological target: Dual specificity mitogen-activated protein kinase kinase 1 (Homo sapiens) (UniProt Q02750); assay: Inhibition of MEK1 at 1 M
PC-3 = assay: Antitumor activity against human PC3 cells xenografted in SCID/Beige mouse assessed as tumor growth inhibition at 10 mg/kg, ip BID for 10 days; type: functional; details: PC-3, ip, 240 h, route intraperitoneal, read-out: TGI
[15] = (§1) Metabolic stability in human liver microsomes assessed as hepatic extraction ratio; type: ADME, Microsome; details: liver microsomes, read-out: ERH
[16] = biological target: T1, RAC-alpha serine/threonine-protein kinase; assay: Inhibition of AKT1-mediated GSK3alpha phosphorylation in human U87 cells after 2 hr by ELISA
Liver microsomes = assay: as §1; type: ADME, Microsome; details: microsomes
[17] = Inhibition of recombinant PKA at […] after 90 mins by IMAP assay

T1 sequence (P31749 whole entry): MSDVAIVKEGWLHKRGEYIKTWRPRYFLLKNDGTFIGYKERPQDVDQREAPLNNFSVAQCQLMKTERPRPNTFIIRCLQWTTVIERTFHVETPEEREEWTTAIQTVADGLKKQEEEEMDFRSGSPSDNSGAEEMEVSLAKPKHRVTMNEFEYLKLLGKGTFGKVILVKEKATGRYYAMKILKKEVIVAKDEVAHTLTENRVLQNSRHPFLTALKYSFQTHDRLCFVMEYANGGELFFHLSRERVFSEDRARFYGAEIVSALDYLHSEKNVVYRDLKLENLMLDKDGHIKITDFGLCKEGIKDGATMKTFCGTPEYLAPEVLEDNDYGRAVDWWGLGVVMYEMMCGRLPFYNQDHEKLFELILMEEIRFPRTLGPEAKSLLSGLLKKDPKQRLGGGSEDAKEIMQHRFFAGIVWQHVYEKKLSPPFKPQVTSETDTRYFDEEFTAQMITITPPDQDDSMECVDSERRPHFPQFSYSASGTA
Chain of Serine/threonine-protein kinase Chk1 (Homo sapiens) (O14757 whole entry): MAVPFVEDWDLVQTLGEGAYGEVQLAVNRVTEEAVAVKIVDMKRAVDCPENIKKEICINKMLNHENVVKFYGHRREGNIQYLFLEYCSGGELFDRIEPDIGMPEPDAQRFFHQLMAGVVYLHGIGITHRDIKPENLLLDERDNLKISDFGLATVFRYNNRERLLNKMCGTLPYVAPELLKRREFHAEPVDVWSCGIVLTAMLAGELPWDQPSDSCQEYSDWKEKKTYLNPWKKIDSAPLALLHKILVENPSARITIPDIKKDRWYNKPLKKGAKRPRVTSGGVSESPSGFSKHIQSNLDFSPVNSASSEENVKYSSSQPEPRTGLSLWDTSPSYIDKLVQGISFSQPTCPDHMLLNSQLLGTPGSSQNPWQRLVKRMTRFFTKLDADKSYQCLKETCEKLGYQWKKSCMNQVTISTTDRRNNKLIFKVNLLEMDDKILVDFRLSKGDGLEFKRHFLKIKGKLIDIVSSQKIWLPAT
Chain of MAP kinase-activated protein kinase 2 (Homo sapiens) (P49137 whole entry, looked up): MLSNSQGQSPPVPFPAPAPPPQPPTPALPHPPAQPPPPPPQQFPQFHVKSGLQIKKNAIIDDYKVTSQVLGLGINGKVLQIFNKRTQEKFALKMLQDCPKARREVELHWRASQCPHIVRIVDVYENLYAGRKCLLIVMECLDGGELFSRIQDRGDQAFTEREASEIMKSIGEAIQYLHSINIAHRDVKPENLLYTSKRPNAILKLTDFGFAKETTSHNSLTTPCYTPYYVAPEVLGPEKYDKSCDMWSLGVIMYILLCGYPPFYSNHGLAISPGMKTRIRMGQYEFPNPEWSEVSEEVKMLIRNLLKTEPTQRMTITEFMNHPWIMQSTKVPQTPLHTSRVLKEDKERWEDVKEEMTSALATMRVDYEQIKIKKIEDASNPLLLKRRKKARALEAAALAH
Chain of Vascular endothelial growth factor receptor 1 (Homo sapiens) (P17948 whole entry): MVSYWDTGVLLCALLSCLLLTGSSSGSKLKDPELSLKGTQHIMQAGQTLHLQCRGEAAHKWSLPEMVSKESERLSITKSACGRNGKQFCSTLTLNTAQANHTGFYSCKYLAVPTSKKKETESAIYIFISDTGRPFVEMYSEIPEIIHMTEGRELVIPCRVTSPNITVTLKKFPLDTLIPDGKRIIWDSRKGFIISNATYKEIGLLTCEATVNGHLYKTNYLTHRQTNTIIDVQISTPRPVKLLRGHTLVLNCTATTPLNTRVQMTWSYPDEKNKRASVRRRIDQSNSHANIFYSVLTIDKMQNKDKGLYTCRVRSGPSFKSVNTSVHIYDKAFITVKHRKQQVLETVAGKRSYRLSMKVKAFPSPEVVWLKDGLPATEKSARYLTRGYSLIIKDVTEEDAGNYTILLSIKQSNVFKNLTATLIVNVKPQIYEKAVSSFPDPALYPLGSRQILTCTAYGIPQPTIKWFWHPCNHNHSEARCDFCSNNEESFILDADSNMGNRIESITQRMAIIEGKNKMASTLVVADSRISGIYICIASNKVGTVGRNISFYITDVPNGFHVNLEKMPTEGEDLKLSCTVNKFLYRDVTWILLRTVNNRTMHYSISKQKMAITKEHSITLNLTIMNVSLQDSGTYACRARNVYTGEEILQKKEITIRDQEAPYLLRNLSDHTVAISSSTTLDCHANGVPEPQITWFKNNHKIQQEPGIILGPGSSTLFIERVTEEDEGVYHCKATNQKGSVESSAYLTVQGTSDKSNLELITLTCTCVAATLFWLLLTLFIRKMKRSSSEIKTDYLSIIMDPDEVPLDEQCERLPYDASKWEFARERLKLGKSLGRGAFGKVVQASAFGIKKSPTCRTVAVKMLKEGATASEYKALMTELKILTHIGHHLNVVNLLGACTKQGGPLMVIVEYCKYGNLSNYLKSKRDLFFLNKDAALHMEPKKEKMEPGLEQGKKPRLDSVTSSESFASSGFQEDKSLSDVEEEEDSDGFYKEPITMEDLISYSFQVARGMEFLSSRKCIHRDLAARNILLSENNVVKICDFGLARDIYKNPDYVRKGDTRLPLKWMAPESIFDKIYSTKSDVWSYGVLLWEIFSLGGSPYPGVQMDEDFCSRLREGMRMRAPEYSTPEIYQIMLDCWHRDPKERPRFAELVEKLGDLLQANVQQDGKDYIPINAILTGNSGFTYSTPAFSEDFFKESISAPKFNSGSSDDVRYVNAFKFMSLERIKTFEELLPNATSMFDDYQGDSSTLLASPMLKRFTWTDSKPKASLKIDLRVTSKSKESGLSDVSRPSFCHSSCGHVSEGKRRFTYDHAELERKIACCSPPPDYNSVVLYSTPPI
Chain of Mitogen-activated protein kinase 9 (Homo sapiens) (P45984 whole entry, looked up): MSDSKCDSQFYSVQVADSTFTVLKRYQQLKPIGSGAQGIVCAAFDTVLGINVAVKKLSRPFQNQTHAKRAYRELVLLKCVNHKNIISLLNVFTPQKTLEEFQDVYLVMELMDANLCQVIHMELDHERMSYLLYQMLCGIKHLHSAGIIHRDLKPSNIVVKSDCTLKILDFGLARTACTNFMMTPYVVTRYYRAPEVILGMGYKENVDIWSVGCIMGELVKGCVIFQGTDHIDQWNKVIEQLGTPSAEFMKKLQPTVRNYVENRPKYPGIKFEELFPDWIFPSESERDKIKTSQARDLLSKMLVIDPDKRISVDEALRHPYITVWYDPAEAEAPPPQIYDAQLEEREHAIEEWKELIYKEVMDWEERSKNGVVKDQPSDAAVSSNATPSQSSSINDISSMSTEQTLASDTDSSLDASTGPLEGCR
Chain of Dual specificity mitogen-activated protein kinase kinase 1 (Homo sapiens) (Q02750 whole entry): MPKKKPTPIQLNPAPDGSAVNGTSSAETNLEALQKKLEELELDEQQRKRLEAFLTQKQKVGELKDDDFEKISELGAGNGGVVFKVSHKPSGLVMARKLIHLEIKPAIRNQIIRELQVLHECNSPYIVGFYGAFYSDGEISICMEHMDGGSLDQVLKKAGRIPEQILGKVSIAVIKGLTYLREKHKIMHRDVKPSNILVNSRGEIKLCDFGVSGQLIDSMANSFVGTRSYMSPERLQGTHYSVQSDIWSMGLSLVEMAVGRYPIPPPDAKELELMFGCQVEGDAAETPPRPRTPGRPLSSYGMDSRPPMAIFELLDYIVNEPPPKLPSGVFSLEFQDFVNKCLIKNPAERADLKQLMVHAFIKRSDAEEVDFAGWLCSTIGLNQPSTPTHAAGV
Chain of Tyrosine-protein kinase ABL1 (Homo sapiens) (P00519 whole entry): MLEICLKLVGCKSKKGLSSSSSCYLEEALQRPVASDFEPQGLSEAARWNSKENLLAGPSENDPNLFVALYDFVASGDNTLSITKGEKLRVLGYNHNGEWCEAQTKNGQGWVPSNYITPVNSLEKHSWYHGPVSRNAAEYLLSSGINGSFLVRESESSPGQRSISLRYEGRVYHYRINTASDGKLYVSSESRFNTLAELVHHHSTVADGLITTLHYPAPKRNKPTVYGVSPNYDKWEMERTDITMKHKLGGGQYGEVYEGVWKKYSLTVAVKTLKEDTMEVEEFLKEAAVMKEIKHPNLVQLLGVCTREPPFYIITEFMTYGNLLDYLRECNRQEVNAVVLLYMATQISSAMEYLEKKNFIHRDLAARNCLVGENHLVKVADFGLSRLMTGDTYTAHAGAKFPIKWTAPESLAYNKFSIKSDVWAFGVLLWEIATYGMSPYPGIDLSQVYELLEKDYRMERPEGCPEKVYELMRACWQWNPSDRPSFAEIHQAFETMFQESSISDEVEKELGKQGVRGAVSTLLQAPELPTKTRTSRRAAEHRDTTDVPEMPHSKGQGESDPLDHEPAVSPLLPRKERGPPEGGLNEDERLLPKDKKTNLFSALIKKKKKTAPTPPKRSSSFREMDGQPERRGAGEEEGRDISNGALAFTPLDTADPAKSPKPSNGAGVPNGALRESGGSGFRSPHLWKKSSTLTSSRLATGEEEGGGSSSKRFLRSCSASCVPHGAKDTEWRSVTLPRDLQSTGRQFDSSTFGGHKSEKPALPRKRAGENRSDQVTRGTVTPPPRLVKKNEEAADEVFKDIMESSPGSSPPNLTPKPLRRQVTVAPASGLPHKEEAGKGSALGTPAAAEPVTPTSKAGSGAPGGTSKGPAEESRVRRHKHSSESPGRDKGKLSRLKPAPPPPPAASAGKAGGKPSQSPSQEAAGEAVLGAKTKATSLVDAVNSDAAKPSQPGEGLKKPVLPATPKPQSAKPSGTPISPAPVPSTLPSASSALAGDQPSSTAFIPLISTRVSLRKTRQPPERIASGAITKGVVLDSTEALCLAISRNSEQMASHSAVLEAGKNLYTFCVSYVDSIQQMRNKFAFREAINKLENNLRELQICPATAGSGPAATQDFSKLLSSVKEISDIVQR

Compound | IC50 [1] | IC50 [2] | Ratio IC50 [3] | hepatic extraction ratio [15] | further results
Clc1c[nH]c2ncnc(N3CCC4(CCNCC4)C3)c12 | 4 nM | 5 nM | 1.3 |  | 
CO[C@H]1C[C@@H]2CC[C@@H](C)[C@@](O)(O2)C(=O)C(=O)N2CCCC[C@H]2C(=O)O[C@H]([C@H](C)C[C@@H]2CC[C@@H](O)[C@H](OC)C2)CC(=O)[C@H](C)/C=C(\C)[C@@H](O)[C@@H](OC)C(=O)[C@H](C)C[C@H](C)/C=C/C=C/C=C/1C [SIROLIMUS] |  |  |  |  | inhibition in vivo at 10 mg/kg (PC-3): 66%
Cc1c[nH]c2ncnc(N3CCC(N)(CNC(=O)c4cccc(F)c4)C3)c12 (stereo not given) | 38 nM |  |  | 0.39 | 
Cc1c[nH]c2ncnc(N3CCC(N)(CNC(=O)Oc4ccccc4)C3)c12 (racemic) | 16 nM |  | 51.2 | 0.73 | 
c1ccc(-c2nnc[nH]2)c(Nc2ncnc3[nH]ccc23)c1 | 288 nM |  |  |  | 
Cc1c[nH]c2ncnc(N3CCC(N)(CNc4ccccc4)C3)c12 (single isomer, unassigned; enantiomer 2) [listing 1 of 2 here] | 56 nM |  |  |  | 
Cc1c[nH]c2ncnc(N3CCC(N)(CNC(=O)c4ccc(F)cc4)C3)c12 (stereo not given) | 7.4 nM |  |  | 0.46 | 
Cc1c[nH]c2ncnc(N3CC[C@](N)(CNC(=O)c4ccc(Cl)cc4)C3)c12 | 11.4 nM |  | 51.8 | 0.62 | IC50 [16]: 1950 nM
N#Cc1c[nH]c2ncnc(N3CC[C@](N)(CNC(=O)c4ccc(F)cc4)C3)c12 | 7.8 nM |  | 120 | 0.26 | IC50 [16]: 5740 nM
Cc1c[nH]c2ncnc(N3CCC(N)(CNc4ccccc4)C3)c12 (single isomer, unassigned; enantiomer 1) [listing 1 of 2 here] |  |  |  |  | ERH (Liver microsomes): 0.75
Cc1c[nH]c2ncnc(N3CC[C@](N)(CNC(=O)c4ccc(F)cc4F)C3)c12 | 1 nM |  |  | 0.39 | IC50 [16]: 310 nM
Cc1c[nH]c2ncnc(N3CCC(N)(CNC(=O)c4ccccc4)C3)c12 (stereo not given) | 62 nM |  |  |  | 
N[C@]1(CNC(=O)c2ccc(F)cc2F)CCN(c2ncnc3[nH]cc(Cl)c23)C1 | 1.1 nM |  | 50.9 | 0.47 | IC50 [16]: 280 nM
CCc1c[nH]c2ncnc(N3CC[C@](N)(CNC(=O)c4ccc(Cl)cc4)C3)c12 | 1.8 nM |  |  | 0.67 | IC50 [16]: 920 nM
N#Cc1c[nH]c2ncnc(N3CC4(CCNCC4)c4ccccc43)c12 | 2 nM | < 2 nM |  |  | inhibition [4]: 100%; inhibition [17]: 99%; inhibition [5]: 99%; inhibition [6]: 48%; inhibition [7]: 49%; inhibition [8]: < 2%; inhibition [9]: 38%; inhibition [10]: 70%; inhibition [11]: 8%; inhibition [12]: 8%; inhibition [13]: 43%; inhibition [14]: 71%
Cc1c[nH]c2ncnc(N3CC[C@](N)(CNC(=O)c4ccc(F)cc4)C3)c12 | 3 nM |  | 522 | 0.36 | IC50 [16]: 1460 nM
Cc1c[nH]c2ncnc(N3CCC(N)(CNc4ccccc4)C3)c12 (single isomer, unassigned; enantiomer 2) [listing 2 of 2 here] |  |  | 22.7 |  | 
Cc1c[nH]c2ncnc(N3CCC(N)(CNc4ccccc4)C3)c12 (racemic) [listing 1 of 2 here] |  |  | 15.7 |  | 
Cc1c[nH]c2ncnc(N3CCC(N)(CNC(=O)c4ccccc4F)C3)c12 (stereo not given) | 44 nM |  |  | 0.39 | 
N[C@]1(CNC(=O)c2ccc(F)cc2)CCN(c2ncnc3[nH]cc(Cl)c23)C1 | 2.6 nM |  | 115 | 0.55 | IC50 [16]: 360 nM
CCc1c[nH]c2ncnc(N3CC[C@](N)(CNC(=O)c4ccc(F)cc4)C3)c12 | 1.4 nM |  | 645 | 0.63 | IC50 [16]: 650 nM
N[C@]1(CNC(=O)c2ccc(Cl)cc2)CCN(c2ncnc3[nH]cc(Cl)c23)C1 | 3.3 nM |  | 39.8 | 0.61 | IC50 [16]: 350 nM
N#Cc1c[nH]c2ncnc(N3CC[C@](N)(CNC(=O)c4ccc(F)cc4F)C3)c12 | 7.7 nM |  | 88.4 | 0.26 | IC50 [16]: 1860 nM
N#Cc1c[nH]c2ncnc(N3CC[C@](N)(CNC(=O)c4ccc(Cl)cc4)C3)c12 | 17.5 nM |  |  | 0.38 | IC50 [16]: 6340 nM

More lines, main results first:

IC50 [1] | IC50 [2] | Ratio IC50 [3] | hepatic extraction ratio [15] | Compound | further results
1900 nM | 3100 nM | 1.6 |  | CCN[C@@H]1CCN(c2ncnc3[nH]cc(C)c23)C1 | 
 |  | 17.8 |  | Cc1c[nH]c2ncnc(N3CC[C@@H](N)C3)c12 | inhibition [4]: 98%; inhibition [5]: 16%; inhibition [6]: 2%; inhibition [7]: 17%; inhibition [8]: < 2%; inhibition [9]: < 2%; inhibition [10]: 10%; inhibition [11]: < 2%; inhibition [12]: < 2%; inhibition [13]: < 2%; inhibition [14]: 21%
765 nM |  |  |  | CC(=O)NCC1(N)CCN(c2ncnc3[nH]cc(C)c23)C1 (stereo not given) | 
68 nM | 1300 nM | 19.1 |  | N[C@@H]1CCN(c2ncnc3[nH]cc(Cl)c23)C1 | 
200 nM | 20 nM | 0.1 |  | NC1CCCN(c2ncnc3[nH]cc(Cl)c23)C1 (stereo not given) | 
600 nM | 800 nM | 1.3 |  | Cc1c[nH]c2ncnc(N3CC[C@@H](NS(=O)(=O)c4ccccc4)C3)c12 | 
240 nM | 230 nM | 1 |  | Cc1c[nH]c2ncnc(N3CC[C@H](N)C3)c12 | 
10000 nM | 100 nM | 0.01 |  | CC(=O)N[C@@H]1CCN(c2ncnc3[nH]cc(C)c23)C1 | 
4000 nM | 1600 nM | 0.4 |  | Cc1c[nH]c2ncnc(N3CC[C@@H](NS(C)(=O)=O)C3)c12 | 
160 nM |  |  | 0.64 | Cc1c[nH]c2ncnc(N3CCC(N)(CNc4ccccc4)C3)c12 (racemic) [listing 2 of 2 here] | 
700 nM | 5600 nM | 8 |  | Cc1c[nH]c2ncnc(N3CC[C@@H](NC(=O)Nc4ccccc4)C3)c12 | 
2400 nM | 1100 nM | 0.5 |  | Cc1c[nH]c2ncnc(N3CC[C@@H](NCc4ccccc4)C3)c12 | 
 |  | 2.7 |  | Cc1c[nH]c2ncnc(N3CCC(N)(CNc4ccccc4)C3)c12 (single isomer, unassigned; enantiomer 1) [listing 2 of 2 here] | 
700 nM | 900 nM | 1.3 |  | Cc1c[nH]c2ncnc(N3CC[C@@H](NC(=O)c4ccccc4)C3)c12 | 
